Data: ChEMBL document CHEMBL4765420, “Design, synthesis and biological evaluation of novel HDAC inhibitors with improved pharmacokinetic profile in breast cancer” (Eur J Med Chem, 2020)
Active and inactive are the calls of the source. The rule behind the calls is not given here.

Columns and labels:
[1] = system: MDA-MB-231; assay: Antiproliferative activity against human MDA-MB-231 cells measured after 24 hrs by MTT assay; format: functional, cell-based; conditions: MDA-MB-231, 24 h
[2] = target: T1, Protein deacetylase HDAC6 (Homo sapiens, UniProt Q9UBN7); assay: Inhibition of recombinant human His-tagged HDAC6 expressed in baculovirus infected insect cells using Ac-Leu-Gly-Lys(Ac)-AMC as substrate measured after 30 mins by fluorescence assay
T1 sequence (Q9UBN7 whole entry): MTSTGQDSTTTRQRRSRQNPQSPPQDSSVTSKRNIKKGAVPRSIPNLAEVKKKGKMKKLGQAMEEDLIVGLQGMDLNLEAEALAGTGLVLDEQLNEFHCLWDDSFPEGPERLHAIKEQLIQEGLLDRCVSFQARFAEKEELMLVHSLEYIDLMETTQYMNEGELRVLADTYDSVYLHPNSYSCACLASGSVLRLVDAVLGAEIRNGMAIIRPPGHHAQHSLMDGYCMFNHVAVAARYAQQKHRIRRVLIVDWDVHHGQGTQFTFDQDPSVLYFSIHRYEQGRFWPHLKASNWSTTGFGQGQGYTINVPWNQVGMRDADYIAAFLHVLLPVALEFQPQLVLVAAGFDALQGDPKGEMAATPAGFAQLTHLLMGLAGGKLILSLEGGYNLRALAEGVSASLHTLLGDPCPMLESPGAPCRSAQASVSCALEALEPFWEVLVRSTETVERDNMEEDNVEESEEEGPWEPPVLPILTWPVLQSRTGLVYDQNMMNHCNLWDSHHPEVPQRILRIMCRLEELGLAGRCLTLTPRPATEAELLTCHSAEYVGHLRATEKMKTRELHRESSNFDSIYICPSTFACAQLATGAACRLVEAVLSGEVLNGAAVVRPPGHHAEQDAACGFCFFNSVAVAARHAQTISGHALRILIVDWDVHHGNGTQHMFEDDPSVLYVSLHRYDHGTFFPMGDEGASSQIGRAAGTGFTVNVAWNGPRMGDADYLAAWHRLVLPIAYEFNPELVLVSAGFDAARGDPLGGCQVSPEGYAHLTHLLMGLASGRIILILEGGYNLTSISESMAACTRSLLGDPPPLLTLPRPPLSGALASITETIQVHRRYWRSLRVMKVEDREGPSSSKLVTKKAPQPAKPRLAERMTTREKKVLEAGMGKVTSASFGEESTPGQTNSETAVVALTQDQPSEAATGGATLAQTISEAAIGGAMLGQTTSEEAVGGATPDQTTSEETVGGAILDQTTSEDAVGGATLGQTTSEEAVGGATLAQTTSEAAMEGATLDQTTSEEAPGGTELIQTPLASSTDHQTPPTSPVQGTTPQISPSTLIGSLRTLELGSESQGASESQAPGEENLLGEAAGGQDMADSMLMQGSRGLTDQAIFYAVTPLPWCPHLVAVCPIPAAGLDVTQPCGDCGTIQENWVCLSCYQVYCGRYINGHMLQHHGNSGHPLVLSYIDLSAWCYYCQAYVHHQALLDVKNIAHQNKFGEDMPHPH

[3] = target: Histone deacetylase 4 (Homo sapiens, UniProt P56524); assay: Inhibition of recombinant human N-terminal GST-tagged HDAC4 (627 to end residues) expressed in baculovirus infected Sf9 insect cells using AcLeu-Gly-Lys(Tfa)-AMC as substrate measured after 30 mins by fluorescence assay
[4] = target: Histone deacetylase 5 (Homo sapiens, UniProt Q9UQL6); assay: Inhibition of recombinant human full-length N-terminal GST-tagged HDAC5 expressed in baculovirus infected Sf9 insect cells using AcLeu-Gly-Lys(Tfa)-AMC as substrate measured after 30 mins by fluorescence assay
Histone deacetylase 5, sequence (Q9UQL6 whole entry, the tested form may be a part): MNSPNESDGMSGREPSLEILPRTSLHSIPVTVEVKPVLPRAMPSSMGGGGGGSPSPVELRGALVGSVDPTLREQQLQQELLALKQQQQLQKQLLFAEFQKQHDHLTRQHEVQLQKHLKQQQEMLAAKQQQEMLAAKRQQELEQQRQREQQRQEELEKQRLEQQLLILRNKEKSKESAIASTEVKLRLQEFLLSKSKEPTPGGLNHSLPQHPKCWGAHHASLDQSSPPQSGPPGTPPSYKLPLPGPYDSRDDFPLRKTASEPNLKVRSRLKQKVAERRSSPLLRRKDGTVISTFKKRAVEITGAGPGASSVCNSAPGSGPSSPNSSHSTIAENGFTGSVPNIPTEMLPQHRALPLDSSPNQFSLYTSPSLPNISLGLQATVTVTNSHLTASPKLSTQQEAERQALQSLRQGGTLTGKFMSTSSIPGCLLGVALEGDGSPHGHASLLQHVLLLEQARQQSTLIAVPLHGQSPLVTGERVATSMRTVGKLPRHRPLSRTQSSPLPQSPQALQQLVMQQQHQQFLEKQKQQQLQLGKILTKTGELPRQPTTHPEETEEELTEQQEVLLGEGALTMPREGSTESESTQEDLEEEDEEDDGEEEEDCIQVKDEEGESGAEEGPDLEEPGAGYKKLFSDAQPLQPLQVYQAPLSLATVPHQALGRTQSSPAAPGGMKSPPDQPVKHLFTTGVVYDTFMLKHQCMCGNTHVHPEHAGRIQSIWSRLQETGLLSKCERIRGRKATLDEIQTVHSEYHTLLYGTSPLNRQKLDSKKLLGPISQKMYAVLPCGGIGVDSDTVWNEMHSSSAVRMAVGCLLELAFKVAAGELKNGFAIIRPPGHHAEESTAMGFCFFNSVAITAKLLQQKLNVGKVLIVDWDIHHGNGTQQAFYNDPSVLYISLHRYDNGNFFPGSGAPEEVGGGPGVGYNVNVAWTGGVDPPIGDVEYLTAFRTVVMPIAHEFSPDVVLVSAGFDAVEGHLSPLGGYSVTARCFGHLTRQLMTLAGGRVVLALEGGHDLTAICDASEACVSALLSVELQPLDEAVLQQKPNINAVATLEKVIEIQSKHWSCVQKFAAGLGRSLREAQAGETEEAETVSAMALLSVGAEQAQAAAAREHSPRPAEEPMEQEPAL

[5] = target: Histone deacetylase 3/NCoR1 (Homo sapiens, UniProt O15379); assay: Inhibition of recombinant human GST-fused HDAC3/NCOR1 (397 to 503 residues) expressed in baculovirus infected insect cells using Ac-Leu-Gly-Lys(Ac)-AMC as substrate measured after 30 mins by fluorescence assay
Histone deacetylase 3/NCoR1, sequence (O15379 whole entry, the tested form may be a part): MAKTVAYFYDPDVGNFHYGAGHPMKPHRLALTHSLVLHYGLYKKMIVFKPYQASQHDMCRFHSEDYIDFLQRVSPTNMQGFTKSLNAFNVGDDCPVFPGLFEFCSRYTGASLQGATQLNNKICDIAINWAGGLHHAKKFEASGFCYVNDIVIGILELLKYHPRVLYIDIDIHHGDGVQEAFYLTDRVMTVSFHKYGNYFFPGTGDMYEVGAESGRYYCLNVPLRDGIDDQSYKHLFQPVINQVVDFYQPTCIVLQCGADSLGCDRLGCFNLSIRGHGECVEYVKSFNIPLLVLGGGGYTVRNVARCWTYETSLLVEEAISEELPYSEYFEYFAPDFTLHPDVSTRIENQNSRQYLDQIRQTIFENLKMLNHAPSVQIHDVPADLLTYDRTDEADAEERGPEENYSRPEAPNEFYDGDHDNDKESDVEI
Histone deacetylase 3/NCoR1, sequence (O75376 whole entry, further chain, the tested form may be a part): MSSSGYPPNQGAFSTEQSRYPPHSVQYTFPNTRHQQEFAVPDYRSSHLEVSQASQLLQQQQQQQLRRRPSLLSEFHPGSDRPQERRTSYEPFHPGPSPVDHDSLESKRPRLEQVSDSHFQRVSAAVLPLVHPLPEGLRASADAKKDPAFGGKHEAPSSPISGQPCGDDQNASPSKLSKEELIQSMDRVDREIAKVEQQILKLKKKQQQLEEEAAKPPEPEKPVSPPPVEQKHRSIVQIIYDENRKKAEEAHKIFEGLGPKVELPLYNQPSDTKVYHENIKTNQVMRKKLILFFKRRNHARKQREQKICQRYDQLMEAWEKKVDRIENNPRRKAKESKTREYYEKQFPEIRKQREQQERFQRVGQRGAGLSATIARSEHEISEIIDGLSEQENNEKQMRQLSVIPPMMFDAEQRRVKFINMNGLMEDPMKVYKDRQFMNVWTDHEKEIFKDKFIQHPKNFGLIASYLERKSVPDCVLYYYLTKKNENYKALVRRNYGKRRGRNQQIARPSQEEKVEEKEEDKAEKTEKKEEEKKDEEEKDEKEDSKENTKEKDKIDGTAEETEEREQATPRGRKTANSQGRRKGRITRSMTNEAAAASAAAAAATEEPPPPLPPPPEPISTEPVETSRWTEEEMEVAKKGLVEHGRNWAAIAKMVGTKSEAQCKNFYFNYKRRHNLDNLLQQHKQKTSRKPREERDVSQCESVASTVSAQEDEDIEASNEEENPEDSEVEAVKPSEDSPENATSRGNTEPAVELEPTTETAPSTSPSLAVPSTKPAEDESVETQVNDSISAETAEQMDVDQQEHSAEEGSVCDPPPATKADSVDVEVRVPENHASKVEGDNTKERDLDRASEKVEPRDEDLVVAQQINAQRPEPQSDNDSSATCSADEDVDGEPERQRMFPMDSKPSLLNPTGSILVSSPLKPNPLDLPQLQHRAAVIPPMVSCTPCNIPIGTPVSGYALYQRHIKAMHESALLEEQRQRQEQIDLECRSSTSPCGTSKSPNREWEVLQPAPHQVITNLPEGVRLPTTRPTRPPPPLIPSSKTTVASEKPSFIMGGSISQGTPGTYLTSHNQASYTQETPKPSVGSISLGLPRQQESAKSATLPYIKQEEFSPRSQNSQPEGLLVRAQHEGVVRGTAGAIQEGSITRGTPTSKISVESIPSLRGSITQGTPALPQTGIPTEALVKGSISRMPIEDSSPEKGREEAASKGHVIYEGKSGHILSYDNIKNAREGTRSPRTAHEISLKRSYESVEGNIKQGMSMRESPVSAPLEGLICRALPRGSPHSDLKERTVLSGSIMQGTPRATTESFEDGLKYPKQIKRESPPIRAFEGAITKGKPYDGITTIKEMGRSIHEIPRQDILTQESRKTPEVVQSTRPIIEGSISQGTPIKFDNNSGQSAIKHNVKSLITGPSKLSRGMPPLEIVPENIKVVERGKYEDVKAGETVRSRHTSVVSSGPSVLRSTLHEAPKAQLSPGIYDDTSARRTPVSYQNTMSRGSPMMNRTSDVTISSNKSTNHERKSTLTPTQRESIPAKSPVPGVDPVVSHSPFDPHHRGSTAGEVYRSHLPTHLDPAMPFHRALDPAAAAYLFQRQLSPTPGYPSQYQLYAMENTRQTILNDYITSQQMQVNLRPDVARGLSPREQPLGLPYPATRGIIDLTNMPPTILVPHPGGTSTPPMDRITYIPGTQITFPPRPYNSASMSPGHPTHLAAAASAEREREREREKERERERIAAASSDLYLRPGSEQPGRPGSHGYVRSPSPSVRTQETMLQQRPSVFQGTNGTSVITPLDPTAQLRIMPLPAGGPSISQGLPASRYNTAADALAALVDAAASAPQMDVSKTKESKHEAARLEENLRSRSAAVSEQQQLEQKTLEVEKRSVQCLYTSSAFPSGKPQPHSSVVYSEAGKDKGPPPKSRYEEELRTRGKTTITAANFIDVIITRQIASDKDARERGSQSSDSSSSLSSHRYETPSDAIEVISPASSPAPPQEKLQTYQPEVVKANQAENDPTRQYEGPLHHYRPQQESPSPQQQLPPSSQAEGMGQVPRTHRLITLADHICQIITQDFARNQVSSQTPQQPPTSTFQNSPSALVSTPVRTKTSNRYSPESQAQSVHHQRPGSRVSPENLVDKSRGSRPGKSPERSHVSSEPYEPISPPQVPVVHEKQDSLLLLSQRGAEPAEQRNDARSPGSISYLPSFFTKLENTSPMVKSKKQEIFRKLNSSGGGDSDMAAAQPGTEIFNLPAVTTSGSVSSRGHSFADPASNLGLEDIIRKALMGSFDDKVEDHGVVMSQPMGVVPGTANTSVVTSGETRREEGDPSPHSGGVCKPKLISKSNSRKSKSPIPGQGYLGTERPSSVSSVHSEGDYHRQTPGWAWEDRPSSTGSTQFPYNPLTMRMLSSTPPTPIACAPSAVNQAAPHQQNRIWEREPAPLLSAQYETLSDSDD

[6] = target: T2, Histone deacetylase 7 (Homo sapiens, UniProt Q8WUI4); assay: Inhibition of HDAC7 (unknown origin) using AcLeu-Gly-Lys(Tfa)-AMC as substrate measured after 30 mins by fluorescence assay
T2 sequence (Q8WUI4 whole entry): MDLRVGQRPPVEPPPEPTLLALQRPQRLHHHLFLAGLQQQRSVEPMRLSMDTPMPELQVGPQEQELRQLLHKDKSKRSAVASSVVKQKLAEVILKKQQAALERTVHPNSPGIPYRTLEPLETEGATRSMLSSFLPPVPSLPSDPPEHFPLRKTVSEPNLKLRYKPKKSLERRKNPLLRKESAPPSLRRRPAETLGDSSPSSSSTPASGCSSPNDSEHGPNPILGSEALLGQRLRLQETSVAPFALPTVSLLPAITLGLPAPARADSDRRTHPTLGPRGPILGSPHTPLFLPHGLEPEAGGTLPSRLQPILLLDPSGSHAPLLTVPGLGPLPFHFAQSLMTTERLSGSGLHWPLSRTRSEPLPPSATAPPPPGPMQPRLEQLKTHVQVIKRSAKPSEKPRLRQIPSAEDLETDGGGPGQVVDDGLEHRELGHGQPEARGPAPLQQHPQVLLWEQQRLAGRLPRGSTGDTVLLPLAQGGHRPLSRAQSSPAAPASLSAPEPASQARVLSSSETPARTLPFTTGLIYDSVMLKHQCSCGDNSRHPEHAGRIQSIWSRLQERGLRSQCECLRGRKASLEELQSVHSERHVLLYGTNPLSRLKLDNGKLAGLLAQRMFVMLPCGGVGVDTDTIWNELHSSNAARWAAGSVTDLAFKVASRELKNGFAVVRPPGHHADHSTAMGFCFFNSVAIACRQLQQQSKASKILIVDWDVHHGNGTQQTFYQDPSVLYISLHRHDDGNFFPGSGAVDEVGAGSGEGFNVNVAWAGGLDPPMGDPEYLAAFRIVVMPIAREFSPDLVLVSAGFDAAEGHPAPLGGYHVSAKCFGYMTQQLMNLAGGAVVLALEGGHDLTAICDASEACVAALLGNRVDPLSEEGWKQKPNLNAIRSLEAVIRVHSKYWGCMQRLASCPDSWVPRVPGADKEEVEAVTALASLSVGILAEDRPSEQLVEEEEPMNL

[7] = target: T3, Histone deacetylase 11 (Homo sapiens, UniProt Q96DB2); assay: Inhibition of recombinant human N-terminal His-tagged HDAC11 expressed in baculovirus infected Sf9 insect cells using Ac-Arg-His-Lys(Ac)-Lys(Ac)-AMC as substrate measured after 30 mins by fluorescence assay
T3 sequence (Q96DB2 whole entry): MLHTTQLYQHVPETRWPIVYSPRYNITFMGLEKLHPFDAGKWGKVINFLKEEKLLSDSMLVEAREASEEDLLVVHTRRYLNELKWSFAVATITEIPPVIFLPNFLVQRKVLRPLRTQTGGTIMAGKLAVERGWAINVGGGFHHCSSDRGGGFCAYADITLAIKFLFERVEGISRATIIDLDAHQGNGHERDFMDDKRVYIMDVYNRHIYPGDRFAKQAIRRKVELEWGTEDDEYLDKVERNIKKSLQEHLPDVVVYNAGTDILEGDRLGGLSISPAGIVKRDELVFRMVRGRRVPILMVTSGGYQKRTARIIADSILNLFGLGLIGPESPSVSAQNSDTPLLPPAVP

[8] = Tmax in Beagle dog at 20 mg/kg, po by LC-MS/MS analysis; format: ADME, organism-based, Canis lupus familiaris; conditions: in vivo
[9] = Cmax in Beagle dog at 20 mg/kg, po by LC-MS/MS analysis; format: ADME, organism-based, Canis lupus familiaris; design: route oral, dose 20 mg/kg; conditions: in vivo
[10] = AUC (0 to infinity) in Beagle dog at 20 mg/kg, po by LC-MS/MS analysis; format: ADME, organism-based, Canis lupus familiaris; design: route oral, time infinity, dose 20 mg/kg; conditions: in vivo
[11] = target: Histone deacetylase 1 (Homo sapiens, UniProt Q13547); assay: Inhibition of recombinant human His-tagged HDAC1 expressed in insect cells using Ac-Leu-Gly-Lys(Ac)-AMC as substrate measured after 30 mins by fluorescence assay
Histone deacetylase 1, sequence (Q13547 whole entry, the tested form may be a part): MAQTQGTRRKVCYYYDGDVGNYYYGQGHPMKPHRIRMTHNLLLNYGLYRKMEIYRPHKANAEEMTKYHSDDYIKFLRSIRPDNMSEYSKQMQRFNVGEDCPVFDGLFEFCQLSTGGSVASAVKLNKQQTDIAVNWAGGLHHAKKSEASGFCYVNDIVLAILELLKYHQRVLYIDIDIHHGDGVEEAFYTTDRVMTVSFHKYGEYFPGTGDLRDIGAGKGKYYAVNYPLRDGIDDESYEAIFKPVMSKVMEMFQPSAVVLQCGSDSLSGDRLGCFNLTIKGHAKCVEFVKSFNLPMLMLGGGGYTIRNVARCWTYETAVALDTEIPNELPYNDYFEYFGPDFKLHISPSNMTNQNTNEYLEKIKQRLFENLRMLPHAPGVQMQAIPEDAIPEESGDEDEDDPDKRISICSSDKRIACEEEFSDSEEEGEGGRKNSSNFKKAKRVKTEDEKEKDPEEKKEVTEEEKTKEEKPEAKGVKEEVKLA

[12] = target: Histone deacetylase 9 (Homo sapiens, UniProt Q9UKV0); assay: Inhibition of recombinant human full-length N-terminal GST-tagged HDAC9 (1 to 1069 residues) expressed in wheat germ expression system using Ac-Leu-Gly-Lys(Tfa)-AMC as substrate measured after 30 mins by fluorescence assay
[13] = Half life in Beagle dog at 20 mg/kg, po by LC-MS/MS analysis; format: ADME, organism-based, Canis lupus familiaris; conditions: in vivo
[14] = target: Histone deacetylase 2 (Homo sapiens, UniProt Q92769); assay: Inhibition of human full-length C-terminal FLAG-tagged HDAC2 expressed in baculovirus infected Sf9 insect cells using Ac-Leu-Gly-Lys(Ac)-AMC as substrate measured after 30 mins by fluorescence assay; format: cell-based
Histone deacetylase 2, sequence (Q92769 whole entry): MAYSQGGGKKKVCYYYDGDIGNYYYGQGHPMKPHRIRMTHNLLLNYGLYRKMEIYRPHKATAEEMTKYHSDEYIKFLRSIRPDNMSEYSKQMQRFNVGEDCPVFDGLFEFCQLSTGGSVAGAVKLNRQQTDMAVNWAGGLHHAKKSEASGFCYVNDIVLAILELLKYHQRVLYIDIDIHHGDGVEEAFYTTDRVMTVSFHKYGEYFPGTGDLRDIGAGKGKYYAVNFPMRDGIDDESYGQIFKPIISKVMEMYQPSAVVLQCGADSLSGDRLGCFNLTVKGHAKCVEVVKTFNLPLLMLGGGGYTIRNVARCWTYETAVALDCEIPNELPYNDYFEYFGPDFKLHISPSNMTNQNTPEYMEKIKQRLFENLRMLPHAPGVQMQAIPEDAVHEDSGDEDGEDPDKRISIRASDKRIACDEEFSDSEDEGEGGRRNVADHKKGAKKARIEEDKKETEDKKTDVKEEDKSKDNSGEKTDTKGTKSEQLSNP

[15] = target: T4, Histone deacetylase 8 (Homo sapiens, UniProt Q9BY41); assay: Inhibition of recombinant human full-length C-terminal His-tagged HDAC8 expressed in baculovirus infected Sf9 insect cells using Ac-Leu-Gly-Lys(Tfa)-AMC as substrate measured after 30 mins by fluorescence assay
T4 sequence (Q9BY41 whole entry): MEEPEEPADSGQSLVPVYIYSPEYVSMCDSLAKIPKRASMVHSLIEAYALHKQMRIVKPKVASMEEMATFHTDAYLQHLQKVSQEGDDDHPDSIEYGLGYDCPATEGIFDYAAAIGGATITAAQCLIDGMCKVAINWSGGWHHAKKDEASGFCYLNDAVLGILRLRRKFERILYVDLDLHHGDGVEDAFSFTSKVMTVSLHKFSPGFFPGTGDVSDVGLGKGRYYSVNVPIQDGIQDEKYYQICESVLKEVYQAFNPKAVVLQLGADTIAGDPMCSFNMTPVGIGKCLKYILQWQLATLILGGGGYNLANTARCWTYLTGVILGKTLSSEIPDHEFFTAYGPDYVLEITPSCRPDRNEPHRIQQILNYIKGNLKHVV

[16] = AUC (0 to t) in Beagle dog at 20 mg/kg, po by LC-MS/MS analysis; format: ADME, organism-based, Canis lupus familiaris; design: dose 20 mg/kg; conditions: in vivo
[17] = system: MDA-MB-231; assay: Antimetastatic activity against CM-Dil labeled human MDA-MB-231 cells xenografted in Zebrafish AB assessed as reduction in tail metastasis at 2.5 ug/ml measured after 5 days by fluorescence microscopic analysis; format: functional, cell-based; conditions: dose 2.5 µg/ml, time 5.0 day

IC50 [1]	IC50 [2]	SMILES	also measured
31.3 µM	> 20 µM	COc1cc(OC)c2c(N3CCOC[C@H]3C)nc(-c3cc(C)c(OCC(=O)NO)c(C)c3)nc2c1	
3.79 µM	0.0985 µM	COc1cc(OC)c2c(N3CCOC[C@@H]3C)nc(-c3cc(C)c(OCCCCCC(=O)NO)c(C)c3)nc2c1	
7.21 µM	0.21 µM	COc1cc(OC)c2c(N3CCOCC3)nc(-c3cc(C)c(OCCCCC(=O)NO)c(C)c3)nc2c1	
15.7 µM	0.42 µM	COc1cc(OC)c2c(N3CCSCC3)nc(-c3cc(C)c(OCCCC(=O)NO)c(C)c3)nc2c1	
12.1 µM	0.13 µM	COc1cc(OC)c2c(N3CCS(=O)(=O)CC3)nc(-c3cc(C)c(OCCCCC(=O)NO)c(C)c3)nc2c1	
8.35 µM	0.22 µM	COc1cc(OC)c2c(N3CCOC[C@H]3C)nc(-c3cc(C)c(OCCCCC(=O)NO)c(C)c3)nc2c1	
5.54 µM	0.119 µM	COc1cc(OC)c2c(N3CCOCC3)nc(-c3cc(C)c(OCCCCCC(=O)NO)c(C)c3)nc2c1	
37.2 µM	> 20 µM	COc1cc(OC)c2c(N3CCSCC3)nc(-c3cc(C)c(OCC(=O)NO)c(C)c3)nc2c1	
6.6 µM	0.19 µM	COc1cc(OC)c2c(N3CCOC[C@@H]3C)nc(-c3cc(C)c(OCCCCC(=O)NO)c(C)c3)nc2c1	
18.4 µM	0.85 µM	COc1cc(OC)c2c(N3CCS(=O)(=O)CC3)nc(-c3cc(C)c(OCCCC(=O)NO)c(C)c3)nc2c1	
35.9 µM	> 20 µM	COc1cc(OC)c2c(N3CCOCC3)nc(-c3cc(C)c(OCC(=O)NO)c(C)c3)nc2c1	

Second part, the compound before the results:

SMILES	IC50 [1]	IC50 [2]	also measured
COc1cc(OC)c2c(N3CCN(C)CC3)nc(-c3cc(C)c(OCCCCCC(=O)NO)c(C)c3)nc2c1			IC50 [3]: > 1 µM; IC50 [4]: > 1 µM; IC50 [5]: 0.0792 µM; IC50 [6]: > 1 µM; IC50 [7]: > 1 µM; Tmax [8]: 47.4 min; Cmax [9]: 120.36 ng/mL; AUC [10]: 1289.4 ng·h/mL; IC50 [11]: 0.0869 µM; IC50 [12]: > 1 µM; t1/2 [13]: 74.4 min; IC50 [14]: 0.0973 µM; IC50 [15]: 0.378 µM; AUC(0-t) [16]: 1280 ng·h/mL
COc1cc(OC)c2c(N3CCSCC3)nc(-c3cc(C)c(OCCCCC(=O)NO)c(C)c3)nc2c1	9.83 µM	0.29 µM	
COc1cc(OC)c2c(N3CCOC[C@@H]3C)nc(-c3cc(C)c(OCC(=O)NO)c(C)c3)nc2c1	29.4 µM	> 20 µM	
COc1cc(OC)c2c(N3CCOCC3)nc(-c3cc(C)c(OCCCC(=O)NO)c(C)c3)nc2c1	11.4 µM	0.35 µM	
O=C(CCCCCCC(=O)Nc1ccccc1)NO [VORINOSTAT]			Activity [17]: Active; Tmax [8]: 9 min; Cmax [9]: 118.93 ng/mL; AUC [10]: 968.32 ng·h/mL; t1/2 [13]: 19.2 min; AUC(0-t) [16]: 965 ng·h/mL
COc1cc(OC)c2c(N3CCOC[C@@H]3C)nc(-c3cc(C)c(OCCCC(=O)NO)c(C)c3)nc2c1	10.8 µM	0.36 µM	
COc1cc(OC)c2c(N3CCS(=O)(=O)CC3)nc(-c3cc(C)c(OCC(=O)NO)c(C)c3)nc2c1	> 50 µM	> 20 µM	
COc1cc(OC)c2c(N3CCOC[C@H]3C)nc(-c3cc(C)c(OCCCC(=O)NO)c(C)c3)nc2c1	11.3 µM	0.33 µM	
COc1cc(OC)c2c(N3CCSCC3)nc(-c3cc(C)c(OCCCCCC(=O)NO)c(C)c3)nc2c1	8.89 µM	0.129 µM	
COc1cc(OC)c2c(N3CCOC[C@H]3C)nc(-c3cc(C)c(OCCCCCC(=O)NO)c(C)c3)nc2c1	5.97 µM	0.102 µM	
